This is an account of results in patent US5627193A, “Quinoline-4-carbonylguanidine derivatives, process for producing the same and pharmaceutical preparations containing the compounds” (Mitsui Toatsu Chemicals, Inc., priority 1995, dated 1997).

In one data set the test system is rat. In words: Effect on ischemic arrhythmia in the rat (left coronary artery ligated for 30 minutes). Type of data set: in vivo. The following applies: 1 mg/kg i.v., five minutes before the ligation; rats with arrhythmia / rats. The procedure:
A rat was anesthetized with pentobarbital, and the left chest was opened under artificial respiration. Then, the left coronary artery was ligated for 30 minutes. The effect of the test compound on ischemic arrhythmia was examined. The test agent was administered intravenously (i.v.) five minutes before the ligation. The arrhythmias were evaluated according to the guidelines of the Lambeth conventions [Cardiovasc. Res., 22, 447-455 (1988)].

The nature of data set [1]: Toxicity test, mortality of mice after 24 hours. The following applies: mouse, in vivo, iv, 100 mg/kg (i.v.), 3 mice. The procedure:
The test compound was administered to a ddy-strain male mouse, and the toxicity was examined. The test compound was administered intravenously (i.v.) in a dose of 100 mg/kg, and the toxicity was evaluated in terms of mortality of mice after 24 hours of the administration (number of specimens: one group consisting of 3 mice).

In data set [2] the target is T1, NHE (Na^+ /H^+ exchanger) (Rattus norvegicus, UniProt P26431).
T1 construct: A rat mesenteric artery was isolated; from tissue; host or cells: isolated rat mesenteric artery segments
In words: NHE inhibitory activity (recovery of the pH in cells after acid load, BCECF, rat mesenteric artery). As to conditions: read-out: Percent NHE inhibition (%). Type of data set: cell-based. The protocol: The NHE inhibitory activity was measured by the following method using a pH in cells as an index.
A rat mesenteric artery was isolated, and was loaded with a pH-sensitive dye BCECF. Subsequently, the tissue segments were mounted in a bath of an intracellular ion concentration measurement device (CAF-110, manufactured by Japan Spectral Co., Ltd.). The pH in cells was measured in terms of a ratio of fluorescent intensities through 2-wavelength excitation of 495 nm (pH-sensitive wavelength)/450 nm (pH-non-sensitive wavelength).
The pH in cells was shifted into acid through pretreatment with 20 mM ammonium chloride to activate NHE. At this time, when Na^+ ions were absent in an external solution, the intracellular acidosis was maintained. When Na^+ ions were present in an external solution, the pH in cells was recovered to a control value. This recovery of the pH in cells was ascribable to the activation of NHE. The NHE inhibitory activity of the medication was examined depending on whether or not this recovery was suppressed. The percent NHE inhibition was calculated from a change in pH (ΔpH) measured by the above-mentioned method using the following formula.
Percent NHE inhibition (%)={1-ΔpH (in the presence of a medication)/ΔpH (in the absence of a medication)}×100
This test was conducted by the method of C. D. Foster et al. [Am. J. Physiol., 262, 31, H1651-H1655 (1992)]. For comparison, the test was conducted with respect to guanidinocarbonylisoquinoline derivatives described in JP A 6-211799 (Family: EP590455).

In another data set the test system is cardiac hypertrophy. As to conditions: Circulation, 86 (Suppl. I) I-177 (1992); cited from earlier work.

T1 sequence (P26431 whole entry): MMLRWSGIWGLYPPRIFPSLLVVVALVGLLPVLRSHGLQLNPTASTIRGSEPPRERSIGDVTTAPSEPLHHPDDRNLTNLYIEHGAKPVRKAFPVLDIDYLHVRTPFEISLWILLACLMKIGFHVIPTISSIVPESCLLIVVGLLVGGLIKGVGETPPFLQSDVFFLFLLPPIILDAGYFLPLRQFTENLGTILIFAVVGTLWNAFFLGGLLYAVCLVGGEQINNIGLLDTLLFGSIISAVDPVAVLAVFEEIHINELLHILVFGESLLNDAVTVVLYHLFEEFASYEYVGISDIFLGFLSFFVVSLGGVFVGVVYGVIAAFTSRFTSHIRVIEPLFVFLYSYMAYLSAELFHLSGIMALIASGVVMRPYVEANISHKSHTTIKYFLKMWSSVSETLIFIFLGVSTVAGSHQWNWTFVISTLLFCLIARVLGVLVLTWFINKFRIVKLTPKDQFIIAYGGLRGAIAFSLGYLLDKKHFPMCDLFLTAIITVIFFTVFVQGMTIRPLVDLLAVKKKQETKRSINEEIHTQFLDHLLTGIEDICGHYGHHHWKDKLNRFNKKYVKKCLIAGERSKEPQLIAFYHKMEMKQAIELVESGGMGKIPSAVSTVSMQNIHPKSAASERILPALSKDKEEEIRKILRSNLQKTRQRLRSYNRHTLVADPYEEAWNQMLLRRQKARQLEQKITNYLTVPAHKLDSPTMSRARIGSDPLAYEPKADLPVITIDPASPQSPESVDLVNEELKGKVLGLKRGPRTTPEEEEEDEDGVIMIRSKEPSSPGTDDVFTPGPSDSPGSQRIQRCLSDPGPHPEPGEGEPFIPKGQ
T1 sequence (P61023 2-195 partner limits assumed): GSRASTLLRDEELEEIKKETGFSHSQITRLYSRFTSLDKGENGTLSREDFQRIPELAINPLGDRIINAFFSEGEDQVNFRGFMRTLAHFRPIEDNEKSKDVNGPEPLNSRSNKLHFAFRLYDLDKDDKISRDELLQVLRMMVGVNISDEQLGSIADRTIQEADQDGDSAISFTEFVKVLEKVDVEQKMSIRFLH

The term mortality denotes the share of the test organisms that died. The low end stands for a weak lethal effect, the high end for a strong lethal effect. Broadly, the inhibition is the share of the control response that was lost under treatment. As to `COc1ccc(OC)c2c(C(=O)N=C(N)N)cc(-c3ccccc3C)nc12` [Example 42, 2-(2'-methylphenyl)-5,8-dimethoxyquinoline-4-carbonylguanidine], in the data set with rat, the “Incidence of arrhythmia, VF (ventricular fibrillation)” value was 0/4 and the “Incidence of arrhythmia, VT (ventricular tachycardia)” value is listed as 2/4. The compound also gave a mortality at 24 h in data set [1] of 0%. In addition, the inhibition at 0.1 µM in data set [2] (Conc. 0.1 μM) came out at 72.7%. In addition, in data set [2] (Conc. 1 μM), the inhibition at 1 µM stood at 89.1%.
In the case of `N=C(N)NC(=O)c1nc(Cl)c(N)nc1N` [amiloride], in the data set with cardiac hypertrophy, the “suppression of cardiac hypertrophy” value is listed as “suppresses cardiac hypertrophy”.
